Like-named read-outs stand apart in the source and are kept apart here.
Experiments:
[1] = test system: hypertonic saline-induced IOP increase in rabbits; assay: IOP lowering activity in hypertonic saline-induced IOP increase in rabbits; format: in vivo, New Zealand White rabbits
Text: Intraocular pressure (IOP) lowering activity in hypertonic saline-induced IOP increase in rabbits.
This animal model of elevated IOP was used for assessing the intraocular pressure (IOP) lowering activities of some compounds of the invention, timolol, dorzolamide and 5-isosorbide mononitrate.
• compounds (6), (20) and (25) • timolol and dorzolamide that are drugs commonly used for the treatment of glaucoma and ocular hypertension. • Isosorbide mononitrate (5-ISMN) that is a commonly used nitric oxide donor drug.
(§1) Timolol, dorzolamide and 5-ISMN were tested as reference compounds. Adults male New Zealand White rabbits weighting 1.8-2.0 Kg were used in the experiments.
IOP was measured using a Tono-Pen XL prior to hypertonic saline injection (basal) and at 30, 60, 120 and 240 min thereafter. Vehicle (5% cremophor-EL; 0.3% DMSO; 0.2 mg/ml BAK in PBS pH 6.0) and all the tested compounds dissolved in the vehicle were instilled as eye drops immediately after hypertonic saline injection. Eyes were randomly assigned to different treatment groups. Vehicle and the tested compounds were directly instilled into the conjunctiva pocket at the desired doses. One drop of 0.4% oxybuprocaine hydrochloride (Novesine, Sandoz) was instilled in each eye immediately before each set of pressure measurements.
Results are reported in Table 6, the ocular hypotensive activities of the tested compounds are expressed as IOP change at 60 and 120 minutes after topical administration versus vehicle and versus the basal IOP.

[2] = test system: lipidic peroxidation of membrane lipids in rat hepatocytes (hepatic microsomal membranes); conditions: Method B; from Chegaev et al.; read-out: Antioxidant activity IC50 μM (CL 95%); cited from earlier work
[3] = test system: lipidic peroxidation of membrane lipids in rat hepatocytes (hepatic microsomal membranes); assay: In vitro antioxidant activity (TBARS test); format: biochemical; conditions: read-out: Antioxidant activity IC50 μM (CL 95%)
Description: The antioxidant properties of compounds (6) (disclosed in example 1) and compound (23) (disclosed in example 19) and reference antioxidant compounds were assessed after NADPH-induced lipidic peroxidation of membrane lipids in rat hepatocytes using the detection of 2-thiobarbituric acid reactive substances (TBARS) by visible spectroscopy.
Hepatic microsomal membranes from male Wistar rats (200-250 g) were prepared by differential centrifugation (8000 g, 20 min; 120000 g, 1 h) in a HEPES/sucrose buffer (10 mM, 250 mM, pH 7.4) and stored at −80° C. Incubation was performed at 37° C. in a Tris-HCl/KCl (100 mM/150 mM, pH 7.4) containing microsomal membranes (2 mg prot/mL), sodium ascorbate (100 μM), and DMSO solutions of the tested compounds. Lipid peroxidation was initiated by adding ADP-FeCl3 and NADPH (Method A) or 2.5 μM FeSO4 (Method B) (as described by Boschi D. et al., J. Med. Chem. 2006, 49:2886-2897). Aliquots were taken from the incubation mixture at 5, 15, and 30 min and treated with trichloroacetic acid (TCA) 10% w/v. Lipid peroxidation was assessed by spectrophotometric (543 nm) determination of the TBARS consisting mainly of malondialdehyde (MDA). TBARS concentrations (expressed in nmol/mg protein) were obtained by interpolation with a MDA standard curve. The antioxidant activity of tested compounds was evaluated as the percent inhibition of TBARS production with respect to control samples, using the values obtained after 30 min of incubation. IC50 values were calculated by nonlinear regression analysis.

[4] = test system: ocular normotensive New Zealand rabbits; assay: IOP lowering activity in ocular normotensive New Zealand rabbits; format: in vivo, New Zealand White rabbits
Description: Intraocular pressure (IOP) lowering activity in ocular normotensive New Zealand rabbits.
• compound (6) • timolol that is a drug commonly used for the treatment of glaucoma and ocular hypertension. • Isosorbide mononitrate (5-ISMN) that is a commonly used nitric oxide donor drug.
as §1
IOP was measured using a pneumatonometer 30 CLASSIC™ before topical application (basal) and a different time point (30, 60, 120, 240 and 300 min) thereafter. Vehicle (5% cremophor-EL; 0.3% DMSO; 0.2 mg/ml BAK in PBS pH 6.0) or tested compounds dissolved in the vehicle were instilled as eye drops into the conjunctiva pocket. Eyes were randomly assigned to different treatment groups. One drop of 0.4% oxybuprocaine hydrochloride (Novesine, Sandoz) was instilled in each eye immediately before each set of pressure measurements.
The test results are reported in Table 7, the ocular hypotensive activity is expressed as IOP changes at 30, 60, 120 and 300 minutes after topical administration versus vehicle and versus IOP at basal.

[5] = test system: endothelial-dependent vasodilation of rat aortas; assay: Endothelial dysfunction evaluation, vascular response to acetylcholine; format: cell-based; conditions: 5-ISMN 30 mg/kg; for Emax at 30 mg/kg: Rattus norvegicus, read-out: % relaxation (Emax), response to acetylcholine
Description: (§2) Thoracic aortas from male New Zealand rabbits or male Sprague Dawley (SD) were used. The aortas were placed immediately in Krebs-HEPES buffer (pH 7.4; composition mM: NaCl 130.0, KCl 3.7, NaHCO3 14.9, KH2PO4 1.2, MgSO4.7H2O 1.2, Glucose 11.0, HEPES 10.0, CaCl2.2H2O 1.6). Connective tissue was removed and aortas were cut into ring segments (4-5 mm in length). Each ring was placed in a 5 mL tissue bath filled with Krebs-HEPES buffer (37° C.) aerated with 95% O2 and 5% CO2 and was attached to a force transducer (Grass FT03), connected to a BIOPAC MP150 System for measurement of the isometric tension. Preparations were allowed to equilibrate for 1 h at a resting tension of 2 g for rabbit aortas and 1 g for rat aortas with changes of the buffer every 15 min. Then the rings were stimulated by exposure to 90 mM KCl (3 times) with intervening washings.
(§3) Rat aorta. After equilibration, rat aortas were precontracted with KCl (90 mM) and, when the contraction was stable, a cumulative concentration-response curve to acetylcholine (ACh, 0.01-100 μM) was added. After washout, the rings were precontracted again with KCl (90 mM). When a steady-state level of contraction was obtained, a cumulative concentration-response curve to the tested compounds (0.01-100 μM) was obtained.
(§4) Data analysis. Results are given as mean±SEM. Vascular responses are expressed as percentage relaxation and plotted vs concentration. The sensitivity of isolated aorta to different vasodilators is expressed as the concentration that elicited 50% of the maximal responses (EC50). Responses are quantified in terms of EC50 and Emax (maximal vasodilating effect) values, obtained from the concentration-response curve by nonlinear curve fitting, using GraphPad software.
Endothelial-dependent vasodilation (vascular response to acetylcholine, ACh) was assessed following 5-day treatment with Compound (6) (100 mg/kg) or 5-ISMN (30 mg/kg). A relaxant response to ACh indicated the presence of a functional endothelium. The vascular response was performed as described in Example 6.

[6] = test system: rat L-NAME-induced hypertension; assay: Systolic blood pressure in rat L-NAME-induced hypertension, single oral dose; format: in vivo; conditions: for Delta vs basal (mmHg), systolic blood pressure: 5-ISMN 30 mg/kg oral
Description: To assess the in vivo NO-dependent activity, Compound (6) was evaluated for systolic blood pressure (SBP) reduction efficacy in a rat model of NO-deprivation induced by L-NAME and compared with 5-ISMN.
(§5) Fasted male SD rats (250-300 g, n=3-5 per group), obtained from Harlan Italy (Correzzana, Milan, Italy) were orally treated with tested compounds or vehicle (DMSO:Methocel 1% 2/98 v/v) in a total volume of 4 ml/kg by gavage. At each time point (1, 3, 6 and 24 h) animals were deeply anesthetized with Zoletil® 100 (3 mg/kg), given intramuscularly. Thereafter, a pressure catheter (Samba Sensors, Harvard Apparatus, UK) was introduced into the common carotid artery for central blood pressure measurement. Pressure transducer was connected to a personal computer, in order to allow real time monitor of the pressure tracing. After 10 minutes of basal recording, L-NAME (50 mg/kg) was administered intraperitoneally and the effect on SBP monitored. When the SBP stabilized (5 minutes without variations) the recording was stopped. To further confirm that functional activity was NO-dependent, at each time point blood ^15N-nitrite levels were measured following the procedure described in Example 12.

[7] = test system: isolated aortas from rats; assay: Ex vivo tolerance evaluation, vascular response of isolated rat aortas; format: cell-based; conditions: for EC50 at 30 mg/kg: Rattus norvegicus, read-out: EC50 (μM), vascular response to 5-ISMN
Description: as §2, §3, §4
Tolerance to nitrate was further investigated assessing the vascular effects of Compound (6) following repeated treatment compared with 5-ISMN. The vascular response to the compound itself was assessed on isolated aortas from rats orally treated for 5 days with Compound (6) (100 mg/kg). The vascular response was performed as described in Example 6.
Vascular responses were performed 1 h (ISMN) or 3 h (Compound (6)) after the last administration, the concentrations of tested compound that elicited the 50% of the maximal responses (EC50) are shown in Table 4.

[8] = test system: rat L-NAME-induced hypertension; assay: In vivo tolerance evaluation, L-NAME-induced hypertension after 5-day oral treatment; conditions: 5-ISMN 30 mg/kg; for Delta vs basal (mmHg): peak effect 1 hour
Description: as §5
To investigate whether the compound (6) induced nitrate tolerance, as observed for most of the drugs belonging to the nitrate class, the L-NAME-induced hypertension rat model described in Example 7 was performed following a repeated oral treatment. Rats were orally treated for 5 days with vehicle, compound (6) (100 mg/kg) or 5-ISMN (30 mg/kg). […] The experiments were performed at the peak effect (1 hour for 5-ISMN and 3 hours for Compound (6)), results are reported in Table 3.

[9] = 60 min after topical administration
[10] = 120 min after topical administration
[11] = 30 min after topical administration
[12] = 300 min after topical administration
[13] = Method A (ADP-FeCl3 and NADPH), inhibition of TBARS production after 30 min

## CCN[C@H]1C[C@H](C)S(=O)(=O)c2sc(S(N)(=O)=O)cc21 [Dorzolamide, dorzolamide]
[1]; [9]
  ΔΔ (mmHg), IOP change versus vehicle and versus basal IOP: −6.9 ± 2.1 mmHg
[1]; [10]
  ΔΔ (mmHg), IOP change versus vehicle and versus basal IOP: −6.7 ± 1.7 mmHg

## CC1=NN(c2ccccc2)C(=O)C1 [Edavarone]
[2]
  IC50: 17 µM

## COC1=C(OC)C(=O)C(CCCOCCO[N+](=O)[O-])=C(C)C1=O [Compound (20), 2-(3-(4,5-dimethoxy-2-methyl-3,6-dioxocyclohexa-1,4-dienyl)propoxy)ethyl nitrate]
[1]; [9]
  ΔΔ (mmHg), IOP change versus vehicle and versus basal IOP: −18.9 ± 2.4 mmHg
[1]; [10]
  ΔΔ (mmHg), IOP change versus vehicle and versus basal IOP: −9.1 ± 1.6 mmHg

## O=C(O)/C=C/c1ccc(O)c(O)c1 [Caffeic acid]
[3]; Method B (2.5 μM FeSO4)
  IC50: 33 µM

## CC(C)(C)NC[C@H](O)COc1nsnc1N1CCOCC1 [Timolol, timolol]
[1]; [9]
  ΔΔ (mmHg), IOP change versus vehicle and versus basal IOP: −5.7 ± 1.4 mmHg
[1]; [10]
  ΔΔ (mmHg), IOP change versus vehicle and versus basal IOP: −8.4 ± 1.2 mmHg
[4]; [11]
  ΔΔ (mmHg), IOP change versus vehicle and versus IOP at basal: −0.4 ± 0.4 mmHg
[4]; [9]
  ΔΔ (mmHg), IOP change versus vehicle and versus IOP at basal: −0.7 ± 0.4 mmHg
[4]; [10]
  ΔΔ (mmHg), IOP change versus vehicle and versus IOP at basal: −0.9 ± 0.4 mmHg
[4]; [12]
  ΔΔ (mmHg), IOP change versus vehicle and versus IOP at basal: −0.05 ± 0.4 mmHg

## CC1=C(CCCCCCO[N+](=O)[O-])C(=O)c2ccccc2C1=O [Compound (23), 6-(3-methyl-1,4-dioxo-1,4-dihydronaphthalen-2-yl) hexyl nitrate]
[3]; [13]
  IC50: 1.4 µM

## COC1=C(OC)C(=O)C(CCCCCCCCCCO)=C(C)C1=O [Idebenone]
[3]; [13]
  IC50: 1.6 µM

## CC1=C(CCCOCCCO[N+](=O)[O-])C(=O)c2ccccc2C1=O [Compound (25), 3-(3-(3-methyl-1,4-dioxo-1,4-dihydronaphthalen-2-yl)propoxy)propyl nitrate]
[1]; [9]
  ΔΔ (mmHg), IOP change versus vehicle and versus basal IOP: −11.5 ± 2.8 mmHg
[1]; [10]
  ΔΔ (mmHg), IOP change versus vehicle and versus basal IOP: −10.2 ± 1.3 mmHg

## O=[N+]([O-])O[C@@H]1CO[C@H]2[C@@H]1OC[C@@H]2O [Compound 5-ISMN, isosorbide-5-mononitrate]
[5]; 5-day treatment, Compound (6) 100 mg/kg
  effect on endothelial-dependent vasorelaxation (response to ACh): caused a reduced response to Ach
[5]; 120 h, repeated (5-day treatment)
  Emax at 30 mg/kg: 78.2 ± 9.2%
[5]; acute
  Emax at 30 mg/kg: 92.7 ± 4.3%
[6]; 1 hour
  Delta vs basal (mmHg), systolic blood pressure: 10.5 ± 6.1 mmHg
[6]; 3 hours
  Delta vs basal (mmHg), systolic blood pressure: 6.5 ± 2.4 mmHg
[6]; 6 hours
  Delta vs basal (mmHg), systolic blood pressure: 51.2 ± 5.7 mmHg
[6]; 24 hours
  Delta vs basal (mmHg), systolic blood pressure: 83 ± 9 mmHg
[6]; single oral administration, 5-ISMN 30 mg/kg, Compound (6) 100 mg/kg
  time over which L-NAME induced hypertension was counteracted after treatment: 3 h
[1]; [9]
  ΔΔ (mmHg), IOP change versus vehicle and versus basal IOP: −0.7 ± 2.9 mmHg
[1]; [10]
  ΔΔ (mmHg), IOP change versus vehicle and versus basal IOP: −6.6 ± 1.8 mmHg
[7]; 5-day oral treatment, 5-ISMN 30 mg/kg, Compound (6) 100 mg/kg
  vascular sensitivity of aortas of treated animals to the compound itself versus vehicle/control arteries: showed a reduced vascular response
[7]; 1 h
  EC50 at 30 mg/kg: 20 ± 0.6 µM
[7]
  EC50 at 30 mg/kg: 127 ± 48 µM
[8]; compound (6) 100 mg/kg
  efficacy in preventing L-NAME-induced hypertension after 5-day oral treatment: did not maintain its efficacy
[8]; acute
  Delta vs basal (mmHg): 10.5 ± 6.1 mmHg
[8]; repeated (5 days oral)
  Delta vs basal (mmHg): 88 ± 11.5 mmHg
[4]; [11]
  ΔΔ (mmHg), IOP change versus vehicle and versus IOP at basal: −1.5 ± 0.3 mmHg
[4]; [9]
  ΔΔ (mmHg), IOP change versus vehicle and versus IOP at basal: −1.7 ± 0.4 mmHg
[4]; [10]
  ΔΔ (mmHg), IOP change versus vehicle and versus IOP at basal: −0.6 ± 0.4 mmHg
[4]; [12]
  ΔΔ (mmHg), IOP change versus vehicle and versus IOP at basal: −0.8 ± 0.4 mmHg

## COc1ccc2[nH]cc(CCNC(C)=O)c2c1 [Melatonin]
[2]
  IC50: 476 µM

Source: patent US9446015B2, “Quinone based nitric oxide donating compounds for ophthalmic use” (NICOX SCIENCE IRELAND, priority 2012, dated 2016)
